Data reported in article PMC11406361, “Several orphan solute carriers functionally identified as organic cation transporters: Substrates specificity compared with known cation transporters” (The Journal of Biological Chemistry, 2024).

What was measured:
SLC44A1 = SLC44A1 (Homo sapiens, UniProt Q8WWI5); conditions: 2.5 μM, 2 min, HEK293
Experimental: (§1) Typically discussed substrates of the proton organic-cation antiporter ([14]) are highlighted in dark green in Figure 1.
(§2) In preparation for transport experiments, 24-well plates were pre-coated with poly-D-lysine (Sigma-Aldrich) and 300,000 cells were plated per well and incubated for 48 h. Firstly, the 24-well plate was placed on a heating plate at 37 °C, and the cells were washed with 37 °C HBSS^+ buffer (Hank’s balanced salt solution supplemented with 10 mM Hepes and adjusted to pH 7.4; Thermo Fisher Scientific). The substance-of-interest, which was diluted in 37 °C HBSS^+ to a desired concentration, was added to the cells for exactly 2 min. […] The uptake was stopped with ice-cold HBSS^+, and the 24-well plate was removed from the heating plate. The cells were washed twice with the cold HBSS^+ before they were lysed for 15 min with 80% (v/v) acetonitrile containing the respective internal standard for mass spectrometry. For variations in seeded cell numbers between the cell lines, several wells were lysed in RIPA buffer and used for total protein quantification using a bicinchoninic assay ([74]) and bovine serum albumin as calibration.
(§3) The intracellular drug concentrations after transport experiments were analyzed by high-performance liquid chromatography coupled to tandem mass spectrometry analysis. The HPLC consisted of a Shimadzu Nexera HPLC System with a SIL-30AC autosampler, a LC-30AD pump, a CTO-20AC column oven, and a CBM-20A controller (Shimadzu). The reverse-phase chromatography of compounds was accomplished with a Brownlee SPP RP-Amide column with 4.6 × 100 mm inner dimensions, a particle size of 2.7 μm, and a preceding Phenomenex C-18 guard column. The mobile phase was composed of an organic additive with acetonitrile:methanol 6:1 (v/v) in total concentrations between 3% and 50% (v/v) and 0.1% (v/v) formic acid in the aqueous component of the eluent. During separation, the column oven was held at 40 °C and the mobile phase was maintained at a flow rate of 300 or 400 μl/min. After separation, the detection of substances was performed with an API 4000 tandem mass spectrometer (AB SCIEX, https://sciex.com/support/software-support/software-downloads), followed by quantification of results with the Analyst software (AB SCIEX, version 1.6.2). The composition of chromatographic conditions, as well as detailed mass spectrometric detection parameters, are listed in Table S5.
(§4) Transport-mediated net uptake was determined as fold-increase of transporter-overexpressing cells over empty vector–transfected control cells.

SLC35E1 [1] = target: T1, SLC35E1 (Homo sapiens, UniProt Q96K37); conditions: 2.5 μM, 2 min, HEK293
T1 sequence (Q96K37 whole entry): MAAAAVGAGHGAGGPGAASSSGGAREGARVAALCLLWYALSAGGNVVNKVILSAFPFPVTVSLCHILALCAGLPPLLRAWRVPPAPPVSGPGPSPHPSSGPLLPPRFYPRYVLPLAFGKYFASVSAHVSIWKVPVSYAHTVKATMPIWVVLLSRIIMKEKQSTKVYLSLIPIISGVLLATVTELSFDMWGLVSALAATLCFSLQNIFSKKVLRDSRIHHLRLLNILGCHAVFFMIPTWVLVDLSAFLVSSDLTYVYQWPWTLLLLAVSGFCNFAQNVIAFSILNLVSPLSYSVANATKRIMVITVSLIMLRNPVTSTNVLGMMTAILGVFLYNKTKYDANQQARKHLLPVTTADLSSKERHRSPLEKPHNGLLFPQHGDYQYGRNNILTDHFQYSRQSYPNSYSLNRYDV
Experimental: as §1, §2, §3, §4

SLC44A2 = SLC44A2 (Homo sapiens, UniProt Q8IWA5); conditions: 2.5 μM, 2 min, HEK293
Chain of SLC44A2 (Q8IWA5 whole entry): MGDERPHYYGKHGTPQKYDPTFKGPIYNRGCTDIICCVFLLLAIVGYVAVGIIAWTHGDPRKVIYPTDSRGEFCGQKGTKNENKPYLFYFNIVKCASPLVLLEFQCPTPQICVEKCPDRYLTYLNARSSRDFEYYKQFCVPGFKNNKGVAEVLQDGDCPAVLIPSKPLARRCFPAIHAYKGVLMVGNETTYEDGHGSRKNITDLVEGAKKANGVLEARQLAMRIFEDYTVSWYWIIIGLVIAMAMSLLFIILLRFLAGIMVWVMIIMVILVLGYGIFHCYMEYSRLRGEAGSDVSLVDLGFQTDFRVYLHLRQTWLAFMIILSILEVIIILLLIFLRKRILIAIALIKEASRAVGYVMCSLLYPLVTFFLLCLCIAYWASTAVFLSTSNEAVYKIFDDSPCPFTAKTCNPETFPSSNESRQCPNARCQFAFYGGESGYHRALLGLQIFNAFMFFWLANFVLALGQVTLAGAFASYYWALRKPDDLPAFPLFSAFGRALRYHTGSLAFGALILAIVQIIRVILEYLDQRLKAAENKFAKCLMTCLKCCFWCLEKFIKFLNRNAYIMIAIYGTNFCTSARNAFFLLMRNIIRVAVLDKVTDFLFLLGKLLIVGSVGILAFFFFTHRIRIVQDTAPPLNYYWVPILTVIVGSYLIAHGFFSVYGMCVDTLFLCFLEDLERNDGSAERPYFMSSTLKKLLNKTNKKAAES
Experimental: as §1, §2, §3, §4

SLC35G4 = SLC35G4 (Homo sapiens, UniProt P0C7Q5); conditions: 2.5 μM, 2 min, HEK293
Chain of SLC35G4 (P0C7Q5 whole entry): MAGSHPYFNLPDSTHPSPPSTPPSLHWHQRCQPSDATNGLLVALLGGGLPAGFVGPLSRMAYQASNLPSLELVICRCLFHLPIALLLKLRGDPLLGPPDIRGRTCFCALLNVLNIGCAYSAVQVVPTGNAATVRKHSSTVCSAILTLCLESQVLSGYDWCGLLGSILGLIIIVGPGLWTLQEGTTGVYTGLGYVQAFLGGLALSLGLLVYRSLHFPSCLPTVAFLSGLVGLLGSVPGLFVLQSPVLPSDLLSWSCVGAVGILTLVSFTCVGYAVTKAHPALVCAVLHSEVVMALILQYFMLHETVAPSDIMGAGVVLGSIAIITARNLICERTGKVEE
Experimental: as §1, §2, §3, §4

SLC5A7 = conditions: read-out: KM of choline transport by SLC5A7; high-affinity choline transporter; ref [46]; cited from earlier work
SLC19A2 = target: T2, SLC19A2 (Homo sapiens, UniProt O60779); assay: Uptake ratio screen, SLC19A2-overexpressing HEK293 over empty vector cells; type: cell-based; conditions: 2.5 μM, 2 min
T2 construct: expressed in transfected cells
T2 sequence (O60779 1-497): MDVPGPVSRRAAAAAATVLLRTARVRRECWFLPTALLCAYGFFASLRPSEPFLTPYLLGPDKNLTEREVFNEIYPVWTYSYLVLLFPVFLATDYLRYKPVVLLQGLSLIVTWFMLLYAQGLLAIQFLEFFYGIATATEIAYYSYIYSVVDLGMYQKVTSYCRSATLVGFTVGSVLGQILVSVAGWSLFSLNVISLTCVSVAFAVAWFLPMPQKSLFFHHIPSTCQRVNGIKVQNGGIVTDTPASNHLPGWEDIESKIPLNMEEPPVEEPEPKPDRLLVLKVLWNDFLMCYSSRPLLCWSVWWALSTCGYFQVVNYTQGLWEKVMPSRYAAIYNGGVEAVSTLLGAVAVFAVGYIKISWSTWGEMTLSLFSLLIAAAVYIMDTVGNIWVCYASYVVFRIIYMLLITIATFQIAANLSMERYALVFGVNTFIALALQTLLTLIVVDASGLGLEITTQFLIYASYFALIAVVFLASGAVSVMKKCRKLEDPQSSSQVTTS
Experimental: as §1, §2
The intracellular drug concentrations after transport experiments were analyzed by high-performance liquid chromatography coupled to tandem mass spectrometry analysis. The HPLC consisted of a Shimadzu Nexera HPLC System with a SIL-30AC autosampler, a LC-30AD pump, a CTO-20AC column oven, and a CBM-20A controller (Shimadzu). The reverse-phase chromatography of compounds was accomplished with a Brownlee SPP RP-Amide column with 4.6 × 100 mm inner dimensions, a particle size of 2.7 μm, and a preceding Phenomenex C-18 guard column. […] After separation, the detection of substances was performed with an API 4000 tandem mass spectrometer (AB SCIEX, https://sciex.com/support/software-support/software-downloads), followed by quantification of results with the Analyst software (AB SCIEX, version 1.6.2). […]
as §4

SLC35F2 = target: T3, SLC35F2 (Homo sapiens, UniProt Q8IXU6); conditions: human
T3 sequence (Q8IXU6 1-374): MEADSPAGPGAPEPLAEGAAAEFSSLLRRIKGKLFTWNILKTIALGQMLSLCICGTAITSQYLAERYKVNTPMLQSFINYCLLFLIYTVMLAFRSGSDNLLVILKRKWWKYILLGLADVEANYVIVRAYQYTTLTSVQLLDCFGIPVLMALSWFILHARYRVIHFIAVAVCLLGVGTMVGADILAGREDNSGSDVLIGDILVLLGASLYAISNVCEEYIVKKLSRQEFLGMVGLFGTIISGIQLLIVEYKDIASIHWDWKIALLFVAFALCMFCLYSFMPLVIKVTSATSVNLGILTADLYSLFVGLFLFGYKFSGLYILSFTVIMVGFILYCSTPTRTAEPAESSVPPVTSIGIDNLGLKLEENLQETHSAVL

SLC35E1 [2] = target: T1, SLC35E1
SLC35E4 = target: T4, SLC35E4 (Homo sapiens, UniProt Q6ICL7)
T4 sequence (Q6ICL7 1-350): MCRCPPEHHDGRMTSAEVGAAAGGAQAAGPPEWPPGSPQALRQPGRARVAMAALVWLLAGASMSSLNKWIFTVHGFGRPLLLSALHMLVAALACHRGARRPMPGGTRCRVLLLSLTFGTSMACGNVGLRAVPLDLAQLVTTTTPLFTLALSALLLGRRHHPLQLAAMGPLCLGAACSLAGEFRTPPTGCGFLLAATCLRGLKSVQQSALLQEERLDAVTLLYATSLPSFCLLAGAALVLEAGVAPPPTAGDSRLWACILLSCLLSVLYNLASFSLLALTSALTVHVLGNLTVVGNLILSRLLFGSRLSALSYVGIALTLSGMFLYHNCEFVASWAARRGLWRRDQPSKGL

Chain of SLC44A1 (Q8WWI5 whole entry): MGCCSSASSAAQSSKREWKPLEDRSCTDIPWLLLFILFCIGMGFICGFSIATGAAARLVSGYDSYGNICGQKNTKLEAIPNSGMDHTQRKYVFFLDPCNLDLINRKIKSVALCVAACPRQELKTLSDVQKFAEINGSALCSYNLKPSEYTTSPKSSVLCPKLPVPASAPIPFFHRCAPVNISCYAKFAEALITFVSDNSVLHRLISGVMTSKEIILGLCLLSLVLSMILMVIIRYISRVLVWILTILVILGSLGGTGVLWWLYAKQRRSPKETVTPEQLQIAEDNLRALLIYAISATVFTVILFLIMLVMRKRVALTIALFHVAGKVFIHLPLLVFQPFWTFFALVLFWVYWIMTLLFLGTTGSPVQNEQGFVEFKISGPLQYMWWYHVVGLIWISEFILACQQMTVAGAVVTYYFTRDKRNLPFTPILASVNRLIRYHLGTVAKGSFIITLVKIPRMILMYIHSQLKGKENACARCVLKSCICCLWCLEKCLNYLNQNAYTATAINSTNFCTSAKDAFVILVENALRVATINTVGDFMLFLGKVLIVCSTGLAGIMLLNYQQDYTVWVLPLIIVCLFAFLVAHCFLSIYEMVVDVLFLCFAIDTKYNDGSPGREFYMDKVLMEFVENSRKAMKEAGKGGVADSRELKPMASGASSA

For `C[N+](C)(C)CCO` [Choline], the “Uptake by SLC44A1 (CTL1) (in words)” value (SLC44A1) was “moderate choline uptake”, the “Uptake by SLC35E1 (in words)” value (SLC35E1 [1]) was “significantly enhanced” and the “Uptake by SLC44A2 (CTL2) (in words)” value (SLC44A2) was “moderate choline uptake”. The “Uptake by SLC35G4 (in words)” value (SLC35G4) was “extensively enhanced the cell uptake”, the Km (SLC5A7) was 2 µM and the “Uptake by SLC19A2 (in words)” value (SLC19A2) was “enhance cell uptake”. For the same compound, the “Clint (±SEM)” value (SLC35F2) was 2.48 (±1.47) μl × mg protein^-1 × min^-1, the “Clint (±SEM)” value (SLC35E1 [2]) was 0.95 (±0.57) μl × mg protein^-1 × min^-1 and the “Clint (±SEM)” value (SLC35E4) was 0.17 (±0.36) μl × mg protein^-1 × min^-1.
